The supplement of paper PMC10307832

Assays:
Test in all cases: relative viability (nuclei count vs DMSO), 5 days (fraction); higher = more cells survive
[1] = test system: NCI-H1437
In short: (§1)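 For relative viability, nuclei counts in treated wells were divided by those in vehicle wells. Lung cancer cell lines had been pin-tool dosed in 1536-well plates the day after seeding and cultured for 5 days, then fixed and stained in one step (final 0.05% Triton X-100, 1% formaldehyde, 1 ug/ml Hoechst) and imaged at 4×. Doses were one drug alone or a fixed anchor-drug dose plus five library-drug doses (not always all listed) in √10 steps, and values are duplicate-plate medians.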

[2] = test system: HCC-366
In short: as §1

[3] = test system: NCI-H727
In short: as §1

[4] = test system: NCI-H1755
In short: as §1

[5] = test system: RERF-LC-KJ
In short: as §1

[6] = test system: NCI-H2347
In short: as §1

[7] = test system: NCI-H596
In short: as §1

[8] = test system: NCI-H1651
In short: as §1

[9] = test system: UMC-11
In short: as §1

[10] = test system: NCI-H1563
In short: as §1

[11] = test system: NCI-H1734
In short: as §1

[12] = test system: HOP-62
In short: as §1

## Cc1cn(-c2cc(NC(=O)c3ccc(C)c(Nc4nccc(-c5cccnc5)n4)c3)cc(C(F)(F)F)c2)cn1 [Nilotinib] + COc1cc2c(Oc3ccc(NC(=O)C4(C(=O)Nc5ccc(F)cc5)CC4)cc3F)ccnc2cc1OCCCN1CCOCC1 [Foretinib] (partner 0.25 µM)
[1]; first compound 0.003162 µM
  relative viability: 1.39
[1]; first compound 0.01 µM
  relative viability: 1.26
[1]; first compound 0.03162 µM
  relative viability: 1.03
[1]; first compound 0.1 µM
  relative viability: 1.27
[2]; first compound 0.001 µM
  relative viability: 0.959
[2]; first compound 0.003162 µM
  relative viability: 1.08
[2]; first compound 0.01 µM
  relative viability: 1.17
[2]; first compound 0.03162 µM
  relative viability: 0.916
[2]; first compound 0.1 µM
  relative viability: 0.953
[3]; first compound 0.003162 µM
  relative viability: 1.16
[3]; first compound 0.01 µM
  relative viability: 1
[3]; first compound 0.03162 µM
  relative viability: 0.797
[3]; first compound 0.1 µM
  relative viability: 0.79
[4]; first compound 0.001 µM
  relative viability: 0.892
[4]; first compound 0.003162 µM
  relative viability: 0.968
[4]; first compound 0.01 µM
  relative viability: 0.974
[4]; first compound 0.03162 µM
  relative viability: 0.983
[4]; first compound 0.1 µM
  relative viability: 0.843
[5]; first compound 0.001 µM
  relative viability: 0.967
[5]; first compound 0.003162 µM
  relative viability: 1.08
[5]; first compound 0.01 µM
  relative viability: 0.924
[5]; first compound 0.03162 µM
  relative viability: 0.81
[5]; first compound 0.1 µM
  relative viability: 0.912
[6]; first compound 0.001 µM
  relative viability: 1.14
[6]; first compound 0.003162 µM
  relative viability: 0.65
[6]; first compound 0.01 µM
  relative viability: 0.6
[6]; first compound 0.03162 µM
  relative viability: 0.77
[6]; first compound 0.1 µM
  relative viability: 0.501
[7]; first compound 0.001 µM
  relative viability: 0.732
[7]; first compound 0.003162 µM
  relative viability: 0.622
[7]; first compound 0.01 µM
  relative viability: 0.729
[7]; first compound 0.03162 µM
  relative viability: 0.937
[7]; first compound 0.1 µM
  relative viability: 0.601
[8]; first compound 0.001 µM
  relative viability: 0.82
[8]; first compound 0.003162 µM
  relative viability: 0.922
[8]; first compound 0.01 µM
  relative viability: 1.19
[8]; first compound 0.03162 µM
  relative viability: 0.761
[8]; first compound 0.1 µM
  relative viability: 0.79
[9]; first compound 0.001 µM
  relative viability: 0.896
[9]; first compound 0.003162 µM
  relative viability: 1.18
[9]; first compound 0.01 µM
  relative viability: 1.23
[9]; first compound 0.1 µM
  relative viability: 1.17
[10]; first compound 0.001 µM
  relative viability: 0.933
[10]; first compound 0.003162 µM
  relative viability: 0.896
[10]; first compound 0.01 µM
  relative viability: 0.875
[10]; first compound 0.03162 µM
  relative viability: 0.852
[10]; first compound 0.1 µM
  relative viability: 0.891
[11]; first compound 0.001 µM
  relative viability: 0.771
[11]; first compound 0.01 µM
  relative viability: 0.895
[11]; first compound 0.03162 µM
  relative viability: 0.646
[11]; first compound 0.1 µM
  relative viability: 0.628
[12]; first compound 0.001 µM
  relative viability: 0.802
[12]; first compound 0.003162 µM
  relative viability: 1.16
[12]; first compound 0.01 µM
  relative viability: 1.27
[12]; first compound 0.03162 µM
  relative viability: 0.831
[12]; first compound 0.1 µM
  relative viability: 0.771
